Measurements taken from the NIST ThermoML archive (doi:10.1021/je5003225).
Numbers after ± are expanded uncertainties.

Assays:
[1] = Liquid; Ebulliometric method (Recirculating still)
[2] = refractive index (Na D-line) (dimensionless); conditions: 298.15 K; 101.33 kPa; Liquid; Standard Abbe refractometry
[3] = xn = mol fraction of the nth substance listed; conditions: 298.15 K, 101 kPa, Liquid, Vibrating tube method

**Q.** Which results are given for `CCC(C)O` (centres undefined) [butan-2-ol]?
**A.** Normal boiling temperature [1]: 99.61 ± 0.3 °C; refractive index [2]: 1.3949 ± 0.0005

**Q.** What does the source list for `CCC(C)O` (centres undefined) [butan-2-ol] + CCOC(C)=O?
**A.** mass density ([3]; x2 = 0): 802.5 ± 0.2 kg/m3; mass density ([3]; x2 = 0.0415): 805.6 ± 0.2 kg/m3; mass density ([3]; x2 = 0.0917): 809.5 ± 0.2 kg/m3; mass density ([3]; x2 = 0.1482): 813.9 ± 0.2 kg/m3; mass density ([3]; x2 = 0.208): 818.7 ± 0.2 kg/m3; mass density ([3]; x2 = 0.257): 822.8 ± 0.2 kg/m3; mass density ([3]; x2 = 0.2963): 826.2 ± 0.2 kg/m3; mass density ([3]; x2 = 0.3488): 830.7 ± 0.2 kg/m3; mass density ([3]; x2 = 0.3914): 834.5 ± 0.2 kg/m3; mass density ([3]; x2 = 0.4397): 838.9 ± 0.2 kg/m3; mass density ([3]; x2 = 0.4905): 843.5 ± 0.2 kg/m3; mass density ([3]; x2 = 0.5313): 847.3 ± 0.2 kg/m3; mass density ([3]; x2 = 0.6): 853.8 ± 0.2 kg/m3; mass density ([3]; x2 = 0.6539): 859 ± 0.2 kg/m3; mass density ([3]; x2 = 0.7031): 863.8 ± 0.2 kg/m3; mass density ([3]; x2 = 0.741): 867.5 ± 0.2 kg/m3; mass density ([3]; x2 = 0.7953): 873 ± 0.2 kg/m3; mass density ([3]; x2 = 0.8528): 878.9 ± 0.2 kg/m3; mass density ([3]; x2 = 0.8891): 882.6 ± 0.2 kg/m3; mass density ([3]; x2 = 0.9484): 889 ± 0.2 kg/m3

**Q.** Which mass density ([3]; x2 = 0) does the source give for `CCC(C)O` (centres undefined) [butan-2-ol] + COC(C)=O here?
**A.** The mass density was 802.5 ± 0.2 kg/m3.

**Q.** For `CCOC(C)=O` [ethyl acetate] + CCC(C)O, which mass density ([3]; x1 = 1) is on record?
**A.** Its mass density is 894.5 ± 0.2 kg/m3.

**Q.** Which mass density ([3]; x1 = 0.058) does the source give for `COC(C)=O` [methyl ethanoate] + CCC(C)O here?
**A.** The mass density was 807.2 ± 0.2 kg/m3.

**Q.** What about the mass density ([3]; x1 = 0.1719) of the same molecule?
**A.** Its mass density is 817.3 ± 0.3 kg/m3.

**Q.** What about the mass density ([3]; x1 = 0.2756) of the same molecule?
**A.** The mass density was 827.5 ± 0.3 kg/m3.

**Q.** And the mass density ([3]; x1 = 0.3391)?
**A.** The mass density was 834.2 ± 0.3 kg/m3.

**Q.** What about the mass density ([3]; x1 = 0.4544) of the same molecule?
**A.** Its mass density is 847.3 ± 0.3 kg/m3.

**Q.** What about the mass density ([3]; x1 = 0.4714) of the same molecule?
**A.** The mass density was 849.3 ± 0.3 kg/m3.

**Q.** What about the mass density ([3]; x1 = 0.5051) of the same molecule?
**A.** The mass density was 853.4 ± 0.3 kg/m3.

**Q.** And the mass density ([3]; x1 = 0.5458)?
**A.** The mass density was 858.5 ± 0.3 kg/m3.

**Q.** What about the mass density ([3]; x1 = 0.593) of the same molecule?
**A.** The mass density was 864.5 ± 0.3 kg/m3.

**Q.** And the mass density ([3]; x1 = 0.6822)?
**A.** The mass density was 876.6 ± 0.3 kg/m3.

**Q.** And the mass density ([3]; x1 = 0.799)?
**A.** Its mass density is 893.7 ± 0.3 kg/m3.

**Q.** What about the mass density ([3]; x1 = 0.8576) of the same molecule?
**A.** Its mass density is 902.9 ± 0.3 kg/m3.

**Q.** What about the mass density ([3]; x1 = 0.8788) of the same molecule?
**A.** The mass density was 906.3 ± 0.3 kg/m3.

**Q.** And the mass density ([3]; x1 = 0.9586)?
**A.** Its mass density is 919.9 ± 0.3 kg/m3.

**Q.** What about the mass density ([3]; x1 = 1) of the same molecule?
**A.** Its mass density is 927.3 ± 0.3 kg/m3.
